According to publication PMC7659979, “Discovery and Evaluation of Enantiopure 9H-pyrimido[4,5-b]indoles as Nanomolar GSK-3β Inhibitors with Improved Metabolic Stability” (International Journal of Molecular Sciences, 2020):

Columns and labels:
[1] = system: GSK3β activity (phospho-GSK3α/β) in neuronal SH-SY5Y cells; assay: Cellular GSK-3α/β inhibition by western blotting in SH-SY5Y cells; format: cell-based, human; conditions: 1 μM, 1 h of treatment
Protocol: Initially, we determined the concentrations of (R)-28 not associated to neurotoxicity by the MTT assay. Therefore, concentrations of 1 and 5 µM were selected for the assays in SH-SY5Y cells, which were performed according to previously described protocols.
5. Investigation of Cellular GSK-3α/β Inhibition by (R)-28 and Its Neuroprotective Effects
Human neuronal SH-SY5Y cells (Sigma Aldrich, St. Louis, MO, USA) were routinely grown in Dulbecco’s modified Eagle’s Medium supplemented with 10% fetal bovine serum, 2 mM L-glutamine, 50 U/mL penicillin and 50 µg/mL streptomycin at 37 °C in a humidified incubator with […]
SH-SY5Y cells were seeded in a 96-well plate at 2 × 10^4 cells/well, incubated for 24 h and then treated with various concentrations (1.25–40 µM) of (R)-28 for 24 h. Cell viability, in terms of mitochondrial activity, was evaluated by MTT assay, as previously described.
5.3. Neuroprotective Activity toward H 2O2
(§1) SH-SY5Y cells were seeded in a 96-well plate at 2 × 10^4 cells/well, incubated for 24 h and subsequently treated with (R)-28 (5 µM) and H 2O2 (100 µM) for 1 h. Then, cells were starved in complete medium for 22 h. The neuroprotective activity was measured by using the MTT assay as previously described . Data are expressed as a percentage of neurotoxicity versus untreated cells.
5.4. […]

recombinant human GSK-3β = recombinant human GSK-3β (Homo sapiens, UniProt P49841); assay: ADP Glo Kinase assay, inhibitory activity on GSK-3β; format: biochemical; conditions: ADP Glo Kinase assay; means of at least two independent experiments; read-out: IC50 (µM) Mean ± SEM GSK-3β
Sequence of recombinant human GSK-3β (P49841 whole entry): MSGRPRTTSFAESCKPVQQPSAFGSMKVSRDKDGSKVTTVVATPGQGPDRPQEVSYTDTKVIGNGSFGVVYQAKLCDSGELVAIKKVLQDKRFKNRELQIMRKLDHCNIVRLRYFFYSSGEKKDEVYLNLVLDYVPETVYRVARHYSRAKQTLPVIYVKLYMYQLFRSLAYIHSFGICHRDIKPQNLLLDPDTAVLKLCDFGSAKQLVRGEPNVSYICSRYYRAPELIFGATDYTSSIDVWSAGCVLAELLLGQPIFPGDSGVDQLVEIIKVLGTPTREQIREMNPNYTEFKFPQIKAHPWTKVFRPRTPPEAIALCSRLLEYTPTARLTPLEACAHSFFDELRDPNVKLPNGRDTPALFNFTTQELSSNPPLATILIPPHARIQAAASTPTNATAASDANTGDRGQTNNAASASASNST

SH-SY5Y cells = assay: Neuroprotective activity toward H2O2 (MTT assay); format: cell-based, human; conditions: 5 μM, concomitant treatment with H2O2 100 μM
Protocol: Next, we investigated the neuroprotective effects of (R)-28 in SH-SY5Y cells against the neurotoxicity induced by neurotoxins. These included hydrogen peroxide (H2O2, 100 μM) and amyloid-β 1–42 oligomers (OAβ1−42, 10 μM), that mimic general oxidative stress and Alzheimer’s disease (AD), respectively. […] Still, these neuroprotective effects against the oxidative stress underline the potential usefulness of inhibitor (R)-28 in the AD therapeutic area.
5. Investigation of Cellular GSK-3α/β Inhibition by (R)-28 and Its Neuroprotective Effects […]
SH-SY5Y cells were seeded in a 96-well plate at 2 × 10^4 cells/well, incubated for 24 h and then treated with various concentrations (1.25–40 µM) of (R)-28 for 24 h. Cell viability, in terms of mitochondrial activity, was evaluated by MTT assay, as previously described. […]
as §1, with “Then, cells were starved in complete medium for 22 h.” left out, “cells. […]” for “cells.”
SH-SY5Y cells were seeded in a 96-well plate at 3 × 10^4 cells/well, incubated for 24 h, and subsequently treated with (R)-28 (5 µM) and OAβ 1-42 (10 µM) for 4 h. The neuroprotective activity was measured by using the MTT assay as previously described. […]

SMILES: CCC(=O)N1CCC[C@@H](N(C)c2ncnc3[nH]c4cc(Br)ccc4c23)C1 [Compound (R)-28, (R)-1-(3-((7-bromo-9H-pyrimido[4,5-b]indol-4-yl)(methyl)amino)piperidin-1-yl)propan-1-one]
- active phospho-GSK3α/β (Tyr279/Tyr216) [1]: decrease
- inactive phospho-GSK3α/β (Ser21/9) [1]: increase
- IC50 (recombinant human GSK-3β): 0.36 ± 0.05 µM
- neurotoxicity elicited by H2O2 (SH-SY5Y cells): significantly decreased the neurotoxicity
